Results on five compounds are retold here after US6472350B1, “Utilization of 3-phenyl-pyrones for pest control” (Bayer Aktiengesellschaft, priority 1998, dated 2002).

Type in all cases: in vivo
For test [1], the system named is larvae of the mustard beetle (Phaedon cochleariae). As to the kind of experiment: Phaedon larvae test. The following applies: active compound concentration 0.1 %, cabbage leaves (Brassica oleracea) dipped. As to the method:
(§1) Phaedon Larvae Test Solvent: 7 parts by weight of dimethylformamide Emulsifier: 1 part by weight of alkylaryl polyglycol ether To produce a suitable preparation of active compound, 1 part by weight of active compound is mixed with the stated amounts of solvent and emulsifier, and the concentrate is diluted with emulsifier-containing water to the desired concentration. Cabbage leaves (Brassica oleracea) are treated by being dipped into the preparation of active compound of the desired concentration and are populated with larvae of the mustard beetle (Phaedon cochleariae) while the leaves are still moist. After the desired period of time, the kill in % is determined. 100% means that all beetle larvae have been killed; 0% means that none of the beetle larvae have been killed.

The subject of test [2] is caterpillars of the diamond back moth (Plutella xylostella). In words: Plutella test. The following applies: active compound concentration 0.1 %, cabbage leaves (Brassica oleracea) dipped.
Test [3] deals with peach aphid (Myzus persicae). As to the kind of experiment: Myzus test. The following applies: active compound concentration 0.1 %, infested cabbage leaves (Brassica oleracea) dipped. As to the method: as §1, with “Myzus” for “Phaedon Larvae”, “oleracea) which are heavily infested by the peach aphid (Myzus persicae)” for “oleracea)”, “concentration.” for “concentration and are populated with larvae of the mustard beetle (Phaedon cochleariae) while the leaves are still moist.”, “aphids” for “beetle larvae”

Test [4] concerns green rice leaf hoppers (Nephotettix cincticeps). In words: Nephotettix test. The following applies: active compound concentration 0.1 %, rice seedlings (Oryza sativa) dipped. The protocol:
Nephotettix Test Solvent: 7 parts by weight of dimethylformamide Emulsifier: 1 part by weight of alkylaryl polyglycol ether To produce a suitable preparation of active compound, 1 part by weight of active compound is mixed with the stated amounts of solvent and emulsifier, and the concentrate is diluted with emulsifier-containing water to the desired concentration. Rice seedlings (Oryza sativa) are treated by being dipped into the active compound preparation of the desired concentration and are populated with green rice leaf hoppers (Nephotettix cincticeps) while the leaves are still moist. After the desired period of time, the kill in % is determined. 100% means that all leaf hoppers have been killed; 0% means that none of the leaf hoppers have been killed.

`Cc1cc(F)ccc1-c1c(O)c(C)c(-c2ccccn2)oc1=O` [drawing 12]: the “Kill in % after 7 d” value in test [1] is 100%.

For `Cc1cc(Cl)ccc1-c1c(O)c(C)c(-c2ccc(F)cc2)oc1=O` [drawing 13], in test [2], the “Kill in % after 7 d” value came out at 100%. Still for that read-out and setting: to `Cc1cc(F)ccc1-c1c(O)c(C)c(-c2ccccn2)oc1=O` [drawing 14] belongs 100%. With `Cc1cc(F)ccc1-c1c(O)c(C)c(-c2ccccn2)oc1=O` [drawing 10], the “Kill in % after 6 d” value in test [3] is 98%.

On to `Cc1cc(Cl)ccc1-c1c(O)c(C)c(-c2ccc(F)cc2)oc1=O` [drawing 11], for which the “Kill in % after 6 d” value in test [4] is on record as 100%.
